Assay results as given in US9567302B2, “Carbamate compounds and of making and using same” (Abide Therapeutics, Inc., priority 2012, dated 2017).

Tests used:
FAAH [1] = target: T1, FAAH (Mus musculus, UniProt O08914); assay: In vitro competitive activity-based protein profiling (FP-Rh), mouse FAAH; format: biochemical; set-up: from tissue; host or cells: mouse brain membrane fraction; settings: 30 min preincubation at 37° C.
T1 sequence (O08914 1-579): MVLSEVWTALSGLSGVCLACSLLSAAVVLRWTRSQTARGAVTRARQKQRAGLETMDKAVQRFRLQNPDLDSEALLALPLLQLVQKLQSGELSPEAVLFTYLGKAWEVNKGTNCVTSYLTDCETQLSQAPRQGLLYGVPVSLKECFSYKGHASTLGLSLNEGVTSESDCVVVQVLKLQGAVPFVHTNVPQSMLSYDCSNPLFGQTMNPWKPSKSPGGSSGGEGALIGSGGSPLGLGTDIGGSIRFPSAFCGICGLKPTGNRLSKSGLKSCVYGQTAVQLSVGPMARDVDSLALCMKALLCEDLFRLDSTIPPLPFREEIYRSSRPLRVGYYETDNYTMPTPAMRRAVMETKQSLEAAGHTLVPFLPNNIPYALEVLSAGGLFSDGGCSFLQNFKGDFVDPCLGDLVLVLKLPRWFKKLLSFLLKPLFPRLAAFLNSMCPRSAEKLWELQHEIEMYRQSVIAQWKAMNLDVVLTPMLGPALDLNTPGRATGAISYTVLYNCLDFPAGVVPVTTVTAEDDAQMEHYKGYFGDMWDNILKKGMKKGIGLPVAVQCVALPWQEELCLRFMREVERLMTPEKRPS
Protocol: (§1) In Vitro Competitive Activity-Based Protein Profiling.
(§2) Proteomes (mouse brain membrane fraction or cell lysates) (50 μL, 1.0 mg/ml total protein concentration) were preincubated with varying concentrations of inhibitors at 37° C. After 30 min, FP-Rh (1.0 μL, 50 μM in DMSO) was added and the mixture was incubated for another 30 min at 37° C. Reactions were quenched with SDS loading buffer (50 μL—4×) and run on SDS-PAGE.

ABHD6 [2] = target: T2, ABHD6 (Mus musculus, UniProt Q8R2Y0); assay: In vitro competitive activity-based protein profiling (FP-Rh), mouse ABHD6; format: biochemical; set-up: from tissue; host or cells: mouse brain membrane fraction; settings: 30 min preincubation at 37° C.
T2 sequence (Q8R2Y0 1-336): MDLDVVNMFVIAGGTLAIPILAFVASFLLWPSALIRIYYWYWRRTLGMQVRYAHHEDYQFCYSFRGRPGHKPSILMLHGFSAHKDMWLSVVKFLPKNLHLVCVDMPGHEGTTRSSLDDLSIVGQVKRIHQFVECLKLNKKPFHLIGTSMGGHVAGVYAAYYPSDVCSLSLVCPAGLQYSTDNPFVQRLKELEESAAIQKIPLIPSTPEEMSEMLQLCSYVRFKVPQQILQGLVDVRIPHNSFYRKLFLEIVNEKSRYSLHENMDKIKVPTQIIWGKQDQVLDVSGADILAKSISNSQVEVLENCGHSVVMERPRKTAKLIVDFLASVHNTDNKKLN
Protocol: as §1, §2

hMAGL = target: T3, hMAGL (Homo sapiens, UniProt Q99685); assay: Competitive ABPP with human MAGL recombinantly expressed in HEK293T cells; format: biochemical; settings: Table 1; hMAGL-HEK293T cell lysates
T3 construct: expressed in transfected cells; host or cells: HEK293T
T3 sequence (Q99685 1-303): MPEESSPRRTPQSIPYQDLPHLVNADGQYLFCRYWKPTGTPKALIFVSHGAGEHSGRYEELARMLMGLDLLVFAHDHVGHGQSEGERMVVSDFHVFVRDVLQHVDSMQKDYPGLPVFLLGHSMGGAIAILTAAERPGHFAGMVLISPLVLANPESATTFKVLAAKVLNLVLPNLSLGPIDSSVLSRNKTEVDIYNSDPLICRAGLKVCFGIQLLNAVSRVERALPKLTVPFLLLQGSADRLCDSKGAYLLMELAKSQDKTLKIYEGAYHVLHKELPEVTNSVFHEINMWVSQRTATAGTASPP
Protocol: as §2
Recombinant Expression of Human MAGL in HEK293T Cells.
Cell lysates were diluted with mock proteomes for use in competitive ABPP experiments.

MAGL [3] = target: T4, MAGL (Mus musculus, UniProt O35678); assay: In vitro competitive activity-based protein profiling (FP-Rh), mouse MAGL; format: biochemical; set-up: from tissue; host or cells: mouse brain membrane fraction; settings: 30 min preincubation at 37° C.
T4 sequence (O35678 1-303): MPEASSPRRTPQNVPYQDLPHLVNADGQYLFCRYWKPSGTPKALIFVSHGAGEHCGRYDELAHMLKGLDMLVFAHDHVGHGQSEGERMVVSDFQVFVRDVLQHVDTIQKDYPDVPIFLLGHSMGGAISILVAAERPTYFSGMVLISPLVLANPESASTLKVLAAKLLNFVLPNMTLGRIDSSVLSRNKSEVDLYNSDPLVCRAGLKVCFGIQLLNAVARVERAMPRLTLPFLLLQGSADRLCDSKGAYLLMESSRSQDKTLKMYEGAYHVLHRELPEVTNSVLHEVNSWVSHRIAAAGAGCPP
Protocol: as §1, §2

MAGL [4] = target: T4, MAGL; assay: Mouse brain MAGL inhibition in proteomes from inhibitor treated mice (oral gavage); format: in vivo; set-up: from tissue; host or cells: mouse brain membrane fraction; settings: p.o., C57Bl/6J mice, brain proteome 4 h following administration
Protocol: as §2
Preparation of Mouse Brain Proteomes from Inhibitor Treated Mice.
Inhibitors were administered to wild-type C57B1/6J by oral gavage in a vehicle of polyethylene glycol.

ABHD6 [5] = target: T2, ABHD6; assay: In vitro competitive ABPP, % inhibition at fixed concentration, ABHD6; format: biochemical; set-up: from tissue
How it was run: (§3)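 Mouse brain membrane proteome or cell lysate at 1.0 mg/ml was preincubated with inhibitor for 30 min at 37° C, then labelled with FP-Rh for another 30 min. After SDS-PAGE, activity was quantified from the fluorescent intensity of the MAGL, ABHD6 and FAAH bands.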

MAGL [6] = target: T4, MAGL; assay: In vitro competitive ABPP, % inhibition at fixed concentration, MAGL; format: biochemical; set-up: from tissue
How it was run: as §3

FAAH [7] = target: T1, FAAH; assay: In vitro competitive ABPP, % inhibition at fixed concentration, FAAH; format: biochemical; set-up: from tissue
How it was run: as §3

With `O=C(ON1C(=O)CCC1=O)N1CCC(C(O)(c2ccc3c(c2)OCO3)c2ccc3c(c2)OCO3)CC1` [Example 1, 2,5-Dioxopyrrolidin-1-yl 4-(bis(benzo[d][1,3]dioxol-5 yl)(hydroxy)methyl)piperidine-1-carboxylate] the IC50 (FAAH [1]; Table 1, mouse proteome) was > 10000 nM, the IC50 (ABHD6 [2]; Table 1, mouse proteome) was 100 to 1000 nM and the IC50 (hMAGL) was < 100 nM. For the same molecule, the IC50 (MAGL [3]; Table 1, mouse proteome) was < 100 nM and the inhibition at 20 mg/kg (MAGL [4]) was 75%.

In the case of `O=C(ON1C(=O)CCC1=O)N1CCN(C(c2ccc(Br)cc2)c2ccc(Br)cc2)CC1` [Example 3, 2,5-Dioxopyrrolidin-1-yl 4-[bis(4-bromophenyl)methyl]piperazine-1-carboxylate], the IC50 (FAAH [1]; Table 1, mouse proteome) is reported as > 10000 nM, the IC50 (ABHD6 [2]; Table 1, mouse proteome) is reported as 100 to 1000 nM and the IC50 (hMAGL) is reported as < 100 nM. For the same molecule, the IC50 (MAGL [3]; Table 1, mouse proteome) was < 100 nM and the inhibition at 20 mg/kg (MAGL [4]) was > 95%.

`COc1ccc(N2CCN(C(=O)ON3C(=O)CCC3=O)CC2)cc1` [Example 5, 2,5-Dioxopyrrolidin-1-yl 4-(4-methoxyphenyl)piperazine-1-carboxylate] was tested, and the IC50 (FAAH [1]; Table 1, mouse proteome) was > 10000 nM, the IC50 (ABHD6 [2]; Table 1, mouse proteome) was 1000 to 10000 nM and the IC50 (hMAGL) was 1000 to 10000 nM. It also gave an IC50 (MAGL [3]; Table 1, mouse proteome) of 1000 to 10000 nM.

In the case of `O=C(ON1C(=O)CCC1=O)N1CCN(Cc2cccc(Oc3ccccc3)c2)CC1` [Example 7, 2,5-Dioxopyrrolidin-1-yl 4-[(3-phenoxyphenyl)methyl]piperazine-1-carboxylate], the IC50 (FAAH [1]; Table 1, mouse proteome) is reported as 1000 to 10000 nM, the IC50 (ABHD6 [2]; Table 1, mouse proteome) is reported as < 100 nM and the IC50 (hMAGL) is reported as < 100 nM. For the same molecule, the IC50 (MAGL [3]; Table 1, mouse proteome) was < 100 nM.

`O=C(ON1C(=O)CCC1=O)N1CCC(CCc2ccc(Cl)cc2)CC1` [Example 8, 2,5-Dioxopyrrolidin-1-yl 4-[2-(4-chlorophenyl)ethyl]piperidine-1-carboxylate] was tested, and the IC50 (FAAH [1]; Table 1, mouse proteome) was 100 to 1000 nM, the IC50 (ABHD6 [2]; Table 1, mouse proteome) was < 100 nM and the IC50 (hMAGL) was < 100 nM. The IC50 (MAGL [3]; Table 1, mouse proteome) was < 100 nM.

In the case of `O=C(ON1C(=O)CCC1=O)N1CCN(Cc2ccccc2Oc2ccccc2)CC1` [Example 35, 2,5-Dioxopyrrolidin-1-yl 4-[(2-phenoxyphenyl)methyl]piperazine-1-carboxylate], the IC50 (FAAH [1]; Table 1, mouse proteome) is reported as 1000 to 10000 nM, the IC50 (ABHD6 [2]; Table 1, mouse proteome) is reported as < 100 nM and the IC50 (hMAGL) is reported as < 100 nM. The IC50 (MAGL [3]; Table 1, mouse proteome) was < 100 nM.

In the case of `O=C(CN1CCN(C(=O)ON2C(=O)CCC2=O)CC1)Nc1cc(C(F)(F)F)ccc1Cl` [Example 36, 2,5-Dioxopyrrolidin-1-yl 4-(2-((2-chloro-5-(trifluoromethyl)phenyl)amino)-2-oxoethyl)piperazine-1-carboxylate], the IC50 (FAAH [1]; Table 1, mouse proteome) is reported as 1000 to 10000 nM, the IC50 (ABHD6 [2]; Table 1, mouse proteome) is reported as 1000 to 10000 nM and the IC50 (hMAGL) is reported as < 100 nM. For the same molecule, the IC50 (MAGL [3]; Table 1, mouse proteome) was < 100 nM.

With `O=C(ON1C(=O)CCC1=O)N1CCN(Cc2ccc(Br)cc2Oc2ccccc2)CC1` [Example 37, 2,5-Dioxopyrrolidin-1-yl 4-[(4-bromo-2-phenoxyphenyl)methyl]piperazine-1-carboxylate] the IC50 (FAAH [1]; Table 1, mouse proteome) was 1000 to 10000 nM, the IC50 (ABHD6 [2]; Table 1, mouse proteome) was 100 to 1000 nM and the IC50 (hMAGL) was < 100 nM. The IC50 (MAGL [3]; Table 1, mouse proteome) was < 100 nM.

For `CC1CC(=O)N(OC(=O)N2CCN(C(c3ccc(Cl)cc3)c3ccc(Cl)cc3)CC2)C1=O` (centres unmarked) [Example 41, 3-Methyl-2,5-dioxopyrrolidin-1-yl 4-(bis(4-chlorophenyl)methyl)piperazine-1-carboxylate], the IC50 (FAAH [1]; Table 1, mouse proteome) was > 10000 nM, the IC50 (ABHD6 [2]; Table 1, mouse proteome) was 100 to 1000 nM and the IC50 (MAGL [3]; Table 1, mouse proteome) was < 100 nM. For the same molecule, the inhibition at 20 mg/kg (MAGL [4]) was > 95%.

For `O=C(ON1C(=O)CNC1=O)N1CCN(C(c2ccc(Cl)cc2)c2ccc(Cl)cc2)CC1` [Example 46, 2,5-Dioxoimidazolidin-1-yl 4-(bis(4-chlorophenyl)methyl)piperazine-1-carboxylate], the IC50 (FAAH [1]; Table 1, mouse proteome) was > 10000 nM, the IC50 (ABHD6 [2]; Table 1, mouse proteome) was 100 to 1000 nM and the IC50 (MAGL [3]; Table 1, mouse proteome) was < 100 nM. The inhibition at 20 mg/kg (MAGL [4]) was > 95%.

With `O=C(ON1C(=O)CCC1=O)N1CCN(Cc2ccc(C(F)(F)F)cc2N2CCCC2)CC1` [Example 105, 2,5-Dioxopyrrolidin-1-yl 4-{[2-(pyrrolidin-1-yl)-4-(trifluoromethyl)phenyl]methyl}piperazine-1-carboxylate] the IC50 (FAAH [1]; Table 2, mouse proteome) was > 10000 nM, the IC50 (ABHD6 [2]; Table 2, mouse proteome) was 1000 to 10000 nM and the IC50 (MAGL [3]; Table 2, mouse proteome) was < 100 nM. For the same molecule, the inhibition at 5 mg/kg (MAGL [4]) was 75%.

In the case of `Cc1c(CN2CCN(C(=O)ON3C(=O)CCC3=O)CC2)cccc1N1CCCCC1` [Example 122, 2,5-Dioxopyrrolidin-1-yl 4-(2-methyl-3-(piperidin-1-yl)benzyl)piperazine-1-carboxylate], the IC50 (FAAH [1]; Table 2, mouse proteome) is reported as > 10000 nM, the IC50 (ABHD6 [2]; Table 2, mouse proteome) is reported as 100 to 1000 nM and the IC50 (MAGL [3]; Table 2, mouse proteome) is reported as < 100 nM. The inhibition at 5 mg/kg (MAGL [4]) was 100%.

In the case of `O=C(ON1C(=O)CCC1=O)N1CCC(N2CCCCC2=O)CC1` [Example 220, 2,5-Dioxopyrrolidin-1-yl 4-(2-oxopiperidin-1-yl)piperidine-1-carboxylate], the inhibition at 10 µM (ABHD6 [5]) is reported as 25 to 75%, the inhibition at 10 µM (MAGL [6]) is reported as < 25% and the inhibition at 10 µM (FAAH [7]) is reported as < 25%.
